Literature values in patent US12239707B2, “Photodynamic compositions and methods of use” (MT RESEARCH, LLC, priority 2018, dated 2025).

Conditions: taken orally; 95% remains intraluminal

## COC(=O)c1ccc2c(c1)NC(=O)/C2=C(\Nc1ccc(N(C)C(=O)CN2CCN(C)CC2)cc1)c1ccccc1 [nintedanib]
  fraction of nintedanib absorbed: 5%
